Measured values from patent publication US6710084B2, “Inhibition of TNFα-initiated neutrophil response” (Brigham and Women's Hospital, priority 1999, dated 2004).

Assays:
IL-1β [1] = assay: IL-1β levels in supernatants of PMN incubated with TNFα, GM-CSF or zymosan; type: cell-based, human
Text: (§1) Human and mouse recombinant TNFα and human recombinant GM-CSF were obtained from Boehringer Mannheim (Indianapolis, Ind.). Dulbecco's PBS (Mg^++ and Ca^++-free), RPMI-1640 and FCS were purchased from Bio Whittaker Inc. (Walkersville, Md.). Ficoll-Hypaque was from Organon Teknika Corp. (Durham, N.C.) and Hank's balanced salt solution was purchased from Gibco BRL (Grand Island, N.Y.). Serum bovine albumin, dextran, antibiotics, L-glutamine, cytochrome C, superoxide dismutase and zymosan were obtained from Sigma (St. Louis, Mo.). The assessment of human IL-1β in supernatants was performed by using an immunometric assay with acetylcholine esterase (Cayman Chemical, Ann Arbor, Mich.). Murine IL-1β was assessed using an ELISA from Endogen (Woburn, Mass.). ELISAs for IL-4 and IL-10 were from Amersham (Arlington Heights, Ill.); MIP-2 and IL-13 ELISAs were from R&D Systems (Minneapolis, Minn.). LXA4 and ATL metabolically stable analogs were prepared and characterized, including nuclear magnetic resonance spectroscopy, as in (14). Concentrations of each LX analog were determined using an extinction coefficient of 50,000 M^−1.cm^−1.just prior to each experiment. Where indicated, statistical analyses were performed using Student's non-paired t-test (two-tailed), and significance (*) was considered to be attained when P was <0.05. […]

leukocyte infiltration = assay: TNFα-induced leukocyte infiltration in murine air pouches
Description: One ml of sterile PBS containing either 0.1% ethanol, TNFα, 15 R/S-methyl-LXA4, or TNFα plus 15 R/S-methyl-LXA4 was injected into the pouches, and the exudates were collected at indicated time periods. The total number of leukocytes was counted as in Materials & Methods. The results are expressed as mean±SEM from three different mice for each point.
Six to eight week old male BALB/c mice were obtained from Taconic Farms (Germantown, N.Y.). Air pouches were raised on the dorsum by s.c. injection of 3 ml of sterile air on day 0 and day 3. All experiments were conducted on day 6 (16). Individual air pouches (one per mouse) were injected with either vehicle alone (0.1% ethanol), TNFα, 15 R/S-methyl-LXA4 or TNFα plus 15 R/S-methyl-LXA4, and each was suspended in 1 ml endotoxin-free PBS immediately before injection into pouch cavities. At given intervals, the mice were sacrificed and individual air pouches were lavaged three times with sterile PBS (1 ml). The exudates were centrifuged at 2000 RPM (5 min) and the supernatants were removed. Cell pellets were suspended in PBS (200 μl) for enumeration and assessed for viability. Fifty μl of each cell suspension was mixed with 150 μl 30% BSA and then centrifuged onto microscope slides at 500 RPM for 5 min using a cytospin centrifuge, air dried, and stained with Giemsa-Wright.
Also, inflammatory exudates were collected 4 h after injection with vehicle alone, TNFα, 15 R/S-methyl-LXA4 alone, or TNFα plus 15 R/S-methyl-LXA4, and cell types were enumerated.

MIP-2 = MIP-2 in murine air pouch exudates (ELISA); type: in vivo, BALB/c mice
Description: (§2) Experiments were conducted as described in FIG. 5 legend. Quantitation for IL-1β, IL-4, IL-10, IL-13 and MIP-2 was performed using ELISA with air pouch cell-free exudates. […] Changes in IL-1β, MIP-2 and IL-4 were significant at all tested time intervals (p<0.01).
(§3) Human and mouse recombinant TNFα and human recombinant GM-CSF were obtained from Boehringer Mannheim (Indianapolis, Ind.). Dulbecco's PBS (Mg^++ and Ca^++-free), RPMI-1640 and FCS were purchased from Bio Whittaker Inc. (Walkersville, Md.). Ficoll-Hypaque was from Organon Teknika Corp. (Durham, N.C.) and Hank's balanced salt solution was purchased from Gibco BRL (Grand Island, N.Y.). Serum bovine albumin, dextran, antibiotics, L-glutamine, cytochrome C, superoxide dismutase and zymosan were obtained from Sigma (St. Louis, Mo.). The assessment of human IL-1β in supernatants was performed by using an immunometric assay with acetylcholine esterase (Cayman Chemical, Ann Arbor, Mich.). Murine IL-1β was assessed using an ELISA from Endogen (Woburn, Mass.). ELISAs for IL-4 and IL-10 were from Amersham (Arlington Heights, Ill.); MIP-2 and IL-13 ELISAs were from R&D Systems (Minneapolis, Minn.). LXA4 and ATL metabolically stable analogs were prepared and characterized, including nuclear magnetic resonance spectroscopy, as in (14). Concentrations of each LX analog were determined using an extinction coefficient of 50,000 M^−1.cm^−1.just prior to each experiment. Where indicated, statistical analyses were performed using Student's non-paired t-test (two-tailed), and significance (*) was considered to be attained when P was <0.05.
(§4) Exudates from selected time intervals were collected and cell-free supernatants assessed for the presence of these murine cytokines. TNFα induced maximal detectable amounts of MIP-2 and IL-1β within 90 minutes (not shown). 15 R/S-methyl-LXA4 (25 mnoles) inhibited TNFα-stimulated MIP-2 and IL-1β release by 48% and 30% respectively (FIG. 6). […] This stimulation of IL-4 was observed both in the absence as well as presence of TNFα. Neither IL-10 nor IL-13 was detected within the pouch exudates.

IL-1β [2] = assay: IL-1β in murine air pouch exudates (ELISA); type: in vivo, BALB/c mice
Description: as §2, §3, §4

IL-1β [3] = assay: TNFα-induced IL-1β release by human PMN; type: cell-based; details: for inhibition of IL-1β release: 100 nM compound, human PMN
Text: Supernatants were collected, and IL-1β was quantitated by ELISA. Results are expressed as mean±SD of duplicates, and are from one experiment representative of n=3. […] Values represent the mean ±SEM, n=3. At all time intervals tested, TNFα induced a significant appearance of IL-1β over vehicle-treated cells (*p<0.01).
as §3

human PMN = assay: TNFα-stimulated superoxide anion generation by human PMN (cytochrome C reduction); type: cell-based; details: for inhibition of TNFα-stimulated superoxide anion generation: 10 nM compound, 5 min, then TNFα 50 ng/ml
Description: Human PMN were incubated with either vehicle alone or indicated concentrations of LXA4, 15 R/S-methyl-LXA4 or 16-phenoxy-LXA4 for 5 min and then with TNFα (50 ng/ml) for an additional 10 min. Values are the mean±SEM for LXA4 (n=3), 15 R/S-methyl-LXA4 (n=4) or 16-phenoxy-LXA4 (n=3).
Venous blood from healthy donors was collected using sterile conditions using acid citrate dextrose (ACD) as an anticoagulant, and PMN were isolated as in (15). PMN were suspended in cold (4° C.) Hank's medium (supplemented with 1.6 mM Ca^++, 0.1% FCS, 2 mM L-glutamine, 1% penicillin, and 2% streptomycin, pH 7.4). […] To examine superoxide production, PMN (1.0×10^6/ml) were placed at 37° C. (3 min) and then exposed to either vehicle (0.1% ethanol) or synthetic LXA4, 15R/S-methyl LXA4 or 16-phenoxy-LXA4 for 5 min at 37° C. Before adding TNFα (50 ng/ml), PMN were incubated with cytochrome C (0.7 mg/ml) for 10 min at 37° C. […] reduction of cytochrome C was terminated by rapidly placing tubes in an ice-water bath. The extent of cytochrome C reduction in each supernatant was determined at 550 nm in reference to control values obtained when superoxide dismutase was added before a stimulus or vehicle control. Cytochrome C reduction was quantitated using the extinction coefficient of 21.1/mmol/L.
TNFα, although a modest agonist of O2^−generation by human PMN, is a physiologically relevant stimulus for the generation of reactive oxygen species (ROS) by human PMN that can play critical roles in local tissue injury during both inflammation and reperfusion (Tsujii, M., S. Kawano, S. Tsuji, H. Sawaoka, M. Hori, and R. N. DuBois. 1998. Cyclooxygenase regulates angiogenesis induced by colon cancer cells. Cell 93:705-716; Shibuya, H., N. Ohkohchi, S. Tsukamoto, and S. Satomi. 1997. Tumor necrosis factor-induced, superoxide-mediated neutrophil accumulation in cold ischemic/reperfused rat liver. Hepatology 26:113-120; Jaeschke, H., A. Farhood, and C. W. Smith. 1990. Neutrophils contribute to ischemia/reperfusion injury in rat liver in vivo. FASEB J. 4:3355-3359). In FIG. 1, the impact of LXA4 and ATL related bioactive stable analogs were evaluated on TNFα stimulated superoxide anion production. […] 15R/S-methyl-LXA4 covers both LXA4 and ATL in structure, and 16-phenoxy-LXA4 is a LXA4 analog (see FIG. 1).

PMN = assay: PMA- or FMLP-stimulated O2- production by PMN; type: cell-based, human
LXA4 receptor = LXA4 receptor (Homo sapiens, UniProt P25090); assay: Involvement of LXA4 receptor in TNFα-stimulated IL-1β release (anti-LXA4-R antibodies)
Chain of LXA4 receptor (P25090 whole entry): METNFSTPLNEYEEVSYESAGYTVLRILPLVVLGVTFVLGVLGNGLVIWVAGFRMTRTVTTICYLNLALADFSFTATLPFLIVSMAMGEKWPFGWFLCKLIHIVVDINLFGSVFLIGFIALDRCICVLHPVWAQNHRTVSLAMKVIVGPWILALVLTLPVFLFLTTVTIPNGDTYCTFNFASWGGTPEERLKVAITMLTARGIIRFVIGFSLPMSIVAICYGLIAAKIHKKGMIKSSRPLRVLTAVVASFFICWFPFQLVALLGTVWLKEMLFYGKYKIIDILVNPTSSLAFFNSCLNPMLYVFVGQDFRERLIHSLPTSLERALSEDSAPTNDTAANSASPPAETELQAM
Description: PMN were incubated with either IgG purified from pre-immune serum (50 μg/ml) or anti-LXA4 receptor (50 μg/ml) for 1 h at 4° C., then exposed to agonists for 12 h at 37° C. and 5% CO2. Values are expressed as mean±SD from an experiment performed in triplicate, which is representative of three distinct experiments each performed with different donors (*p<0.01).
PMN were incubated with ˜50 μg/ml of either preimmune protein-A purified IgG or IgG directed against LXA4-R for 1 h at 4° C. prior to exposure to TNFα (10 ng/ml) and 15 R/S-methyl-LXA4 (100 nM).

IL-1β messenger RNA = assay: TNFα-triggered IL-1β gene expression in PMN (Northern blot); details: 100 nM compound plus TNFα 10 ng/ml; 6 h
Description: PMN were incubated with either 0.1% ethanol (vehicle) or 15 R/S-methyl-LXA4 at 10, 100, and 1000 nM, in the presence or absence of TNFα (10 ng/ml), for 6 h at 37° C. Northern blots were performed in order to detect IL-1β messenger RNA.
PMN were exposed to increasing concentrations of 15 R/S-methyl-LXA4, 16-phenoxy-LXA4 or native LXA4 in the presence of TNFα (10 ng/ml) or vehicle alone.

IL-4 = IL-4 in murine air pouch exudates (ELISA); type: in vivo, BALB/c mice; details: both in the absence as well as presence of TNFα
Description: as §2
as §1, with “ELISAs for IL-4 and IL-10 were from Amersham (Arlington Heights, Ill.); MIP-2 and IL-13 ELISAs were from R&D Systems (Minneapolis, Minn.). LXA4 and ATL metabolically stable analogs were prepared and characterized, including nuclear magnetic resonance spectroscopy, as in (14).” left out, “experiment.” for “experiment. Where indicated, statistical analyses were performed using Student's non-paired t-test (two-tailed), and significance (*) was considered to be attained when P was <0.05.”
Exudates from selected time intervals were collected and cell-free supernatants assessed for the presence of these murine cytokines. […] Neither IL-10 nor IL-13 was detected within the pouch exudates.

[4] = injected alone, 4 h post-injection, TNFα 10 ng or compound 25 nmoles
[5] = compound 25 nmoles plus TNFα 10 ng, 4 h post-injection
[6] = 25 mnoles, air pouch exudates (FIG. 6)

GM-CSF: human recombinant GM-CSF, agonist of IL-1β release
approximate EC50 for increase in IL-1β levels in supernatants (IL-1β [1]; agonist GM-CSF): ~10 U/ml

TNFα [reference compound]
Number of leukocytes present in the pouch: Eosinophils/Basophils (leukocyte infiltration; [4]): 0.30 ± 0.01 x 10^6
Number of leukocytes present in the pouch: Monocytes/Macrophages (leukocyte infiltration; [4]): 0.20 ± 0.01 x 10^6
Number of leukocytes present in the pouch: Neutrophils (leukocyte infiltration; [4]): 2.40 ± 0.10 x 10^6
time of maximal accumulation of leukocytes in the air pouch (leukocyte infiltration; murine TNFα 10 ng/ml): 4 h
time to maximal detectable amounts of MIP-2 (MIP-2; TNFα-injected pouches): ≤ 90 min
approximate EC50 for increase in IL-1β levels in supernatants (IL-1β [1]; agonist TNFα): ~10 ng/mL
time to maximal detectable amounts of IL-1β (IL-1β [2]; TNFα-injected pouches): ≤ 90 min

CCCCC[C@H](O)/C=C/C=C\C=C\C=C\[C@@H](O)[C@@H](O)CCCC(=O)O (relative stereo) [LXA4, 5S, 6R, 15S-trihydroxy-7,9,13-trans-11-cis-eicosatetraenoic acid, reference compound]
inhibition of IL-1β release (IL-1β [3]; TNFα 10 ng/ml): comparable
effect on TNFα-induced IL-1β release (IL-1β [3]; LXA4 100 nM, TNFα 10 ng/ml, 20 h (FIG. 2A)): specifically inhibited
inhibition of TNFα-stimulated superoxide anion generation (human PMN): 34.3±2.3%
inhibition of FMLP-stimulated O2- production (PMN): neither LXA4 nor its analogs inhibit
inhibition of PMA-stimulated O2- production (PMN; PMA 100 nM, n=3): neither LXA4 nor its analogs inhibit

COC(=O)CCCC(O)C(O)C=CC=CC=CC=CC(O)COc1ccccc1 (stereo not drawn) [16-phenoxy-LXA4, 16 phenoxy-lipoxin A4 methyl ester]
inhibition of IL-1β release (IL-1β [3]; TNFα 10 ng/ml): approximately 40%
potency relative to native LXA4 as inhibitor of TNFα-stimulated superoxide generation (human PMN): approximately three times more potent
inhibition of TNFα-stimulated superoxide anion generation (human PMN): 93.7±3.2%

CCCCCC(C)(O)/C=C/C=C\C=C\C=C\[C@@H](O)[C@@H](O)CCCC(=O)OC (stereo partly drawn) [15 R/S-methyl-LXA4, 15R/S-methyl-LXA4-methyl ester]
time at which inhibition of leukocyte recruitment was evident (leukocyte infiltration; 25 nmoles): 1 h
inhibition of TNFα-stimulated recruitment of leukocytes to the air pouch (leukocyte infiltration; 25 nmoles into pouch, murine TNFα 10 ng/ml (FIG. 5)): 62%
leukocyte infiltration at 8 h (leukocyte infiltration; 8 h, 25 nmoles (FIG. 5, insert)): remained significantly reduced
reduction in leukocyte infiltration (leukocyte infiltration; between 2 h and 4 h, 25 nmoles): more than 60%
Number of leukocytes present in the pouch: Eosinophils/Basophils (leukocyte infiltration; [5]): 0.13 ± 0.01 x 10^6
Number of leukocytes present in the pouch: Monocytes/Macrophages (leukocyte infiltration; [5]): 0.10 ± 0.01 x 10^6
Number of leukocytes present in the pouch: Neutrophils (leukocyte infiltration; [5]): 0.98 ± 0.10 x 10^6
Percent inhibition of TNFα-induced infiltration: Eosinophils/Basophils (leukocyte infiltration; [5]): (56.0%)
Percent inhibition of TNFα-induced infiltration: Monocytes/Macrophages (leukocyte infiltration; [5]): (50%)
Percent inhibition of TNFα-induced infiltration: Neutrophils (leukocyte infiltration; [5]): (59.1%)
Number of leukocytes present in the pouch: Eosinophils/Basophils (leukocyte infiltration; [4]): 0.03 ± 0.01 x 10^6
Number of leukocytes present in the pouch: Monocytes/Macrophages (leukocyte infiltration; [4]): 0.14 ± 0.01 x 10^6
Number of leukocytes present in the pouch: Neutrophils (leukocyte infiltration; [4]): 0.25 ± 0.01 x 10^6
leukocyte infiltration after injection of the analog alone (leukocyte infiltration; without TNFα): did not cause a significant leukocyte infiltration
mononuclear cell influx, compound alone (leukocyte infiltration; without TNFα, 4 h): small but statistically significant increase
inhibition of TNFα-induced IL-1β release (IL-1β [3]; 10 nM compound, TNFα 10 ng/ml (FIG. 2B)): clear statistically significant inhibition
time within which inhibition of IL-1β release was evident (IL-1β [3]; 10 nM compound, more prominent after 24 h): ≤ 6 h
inhibition of IL-1β release (IL-1β [3]; TNFα 10 ng/ml): approximately 60%
inhibition of IL-1β release (LXA4 receptor; 100 nM compound, TNFα 10 ng/ml, 12 h (FIG. 4)): about 50%
IL-1β appearance when added together with anti-LXA4-R antibodies in the presence of TNFα (LXA4 receptor; 100 nM compound, antibodies ~50 μg/ml): did not further inhibit IL-1β appearance
stimulation of IL-1β appearance within supernatants, agent alone (LXA4 receptor; without TNFα): neither anti-LXA4-R antibodies nor 15 R/S-LXA4 alone stimulated significant amounts of IL-1β
inhibition of TNFα-stimulated MIP-2 release (MIP-2; [6]): 48%
MIP-2 release, compound alone in the air pouch (MIP-2; without TNFα): did not stimulate
decrease of IL-1β messenger RNA levels compared to TNFα alone (IL-1β messenger RNA): approximately 60%
potency relative to native LXA4 as inhibitor of TNFα-stimulated superoxide generation (human PMN): approximately three times more potent
inhibition of TNFα-stimulated superoxide anion generation (human PMN): 81.3±14.1%
appearance of IL-4 within the exudates (IL-4): stimulated the appearance of IL-4
inhibition of TNFα-stimulated IL-1β release (IL-1β [2]; [6]): 30%
IL-1β release, compound alone in the air pouch (IL-1β [2]; without TNFα): did not stimulate
